This experiment deals with CEM cells HIV-1 protection, formazan growth assay. Description: NCI AIDS Antiviral Assay. The conditions noted are these: for IC50: measured here: growth of uninfected CEM cells. In outline: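 Screen of anti-HIV-1 activity in human CEM cells using a formazan-based growth measurement at five drug concentrations. Hits with 50% or greater protection were repeated, and confirmation required reproducible complete protection.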

Calls of active or inactive are those of the source.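 How the source made its calls: active means compounds giving half or more protection of infected cells from virus-caused growth loss, again on retest; inactive means the rest.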 Where a SMILES comes first, the peptide text is derived from it. [ ]: non-standard residue; d: D form. pGlu = O=C1CC[CH](C(=O)O)N1

As a reminder, the EC50 is the concentration at which the effect is half-maximal. The term IC50 denotes the concentration that gives 50% inhibition. Low readings indicate greater potency in that assay, high ones weaker potency in that assay. As to `O=C1CCC(C2(O)c3ccccc3-c3ccccc32)C(=O)N1` (stereo not drawn), the EC50 was greater than 123 µM and the IC50 is greater than 123 µM.

For the molecule `COc1nc(NC2OC(COC(C)=O)C(OC(C)=O)C(OC(C)=O)C2OC(C)=O)c(-c2csc(N)n2)c(=O)n1C` (stereo not drawn), the EC50 was greater than 6.17 µM and the IC50 was greater than 6.17 µM.

Consider `Cc1cccc(NC(=O)CC(=O)N2N=C(N(CCC#N)c3ccccc3Cl)CC2c2ccccc2)c1` (stereo not drawn), for which the EC50 is greater than 186 µM and the IC50 was greater than 186 µM.

On to `Cn1c2c(c3ccccc31)CCN1C(=O)CN(C(=O)C3CCCCC3)CC21` (stereo not drawn), for which the EC50 was greater than 200 µM and the IC50 came to 66.1 µM.

With `CC1=NN(C(=O)c2ccccc2O)C(=O)/C1=C/c1cccc([N+](=O)[O-])c1`, the EC50 is greater than 141 µM and the IC50 turned out to be 0.0977 µM.

For the molecule `CCOC(=O)C(O)(NC(=O)NC(O)(C(=O)OCC)C(F)(F)F)C(F)(F)F` (stereo not drawn), the EC50 was greater than 200 µM and the IC50 is greater than 200 µM.

Consider `Cc1cc(O)ccc1C1(c2ccc(O)cc2C)OS(=O)(=O)c2ccccc21`, for which the result was inactive.

On to `CCOC(=O)c1nc2ccccc2nc1Nc1ccc(Cl)c(Cl)c1`, for which the EC50 was 151 µM and the IC50 is greater than 200 µM.

`COC(=O)c1c2c(cc3nc4ccccc4nc13)OCO2`: the EC50 was greater than 200 µM and the IC50 is greater than 200 µM.

Turning to `CN(CCO)c1nc2c(c(=O)[nH]1)CNCC2`, the EC50 is greater than 288 µM and the IC50 is greater than 288 µM.

`COc1cccc(C2(C#N)CCN(C)CC2)c1`: the EC50 is greater than 1070 µM and the IC50 was 537 µM.

`[Cu+2].[O-]/C(=N\N=C/c1cccc(F)c1)c1ccncc1.[O-]/C(=N\N=C\c1cccc(F)c1)c1ccncc1`: the EC50 is greater than 100 µM and the IC50 was 24.5 µM.

As for `CC(C)(C)OC(=O)C1=C(O)C(C(=O)OC(C)(C)C)C23CCCCC12C(C(=O)OC(C)(C)C)C(O)=C3C(=O)OC(C)(C)C` (stereo not drawn), the outcome was inactive.

On to `COc1ccc(S(=O)(=O)O)cc1C(=O)c1cc(S(=O)(=O)O)ccc1OC`, for which the EC50 is greater than 575 µM and the IC50 is greater than 575 µM.

For the molecule `CCN1/C(=C/C#C/C(C)=C\c2sc3ccc(Cl)cc3[n+]2CC)Sc2ccc(Cl)cc21`, the EC50 is greater than 20 µM and the IC50 is 2.24 µM.

As to `Cc1ccc(/C=C2\CNC/C(=C\c3ccc(C)cc3)C2=O)cc1`, the EC50 is greater than 3.98 µM and the IC50 is greater than 3.98 µM.

For the molecule `N#CCN1CCCCCc2ccccc21`, the EC50 was greater than 200 µM and the IC50 is greater than 200 µM.

For `Cc1nc(-n2nc(-c3ccccc3)cc2-c2ccccc2)sc1C(=O)CC(=O)C(=O)Nc1ccc(Cl)c(Cl)c1`, the EC50 was greater than 45.7 µM and the IC50 is greater than 45.7 µM.

As for `Cc1cc(C)nc(NS(=O)(=O)c2ccc(NN=c3c4ccccc4n(C)c4ccccc34)cc2)n1`, the EC50 was greater than 200 µM and the IC50 worked out at 11.2 µM.

With `O=C1NN=C(c2ccc([N+](=O)[O-])cc2)C1n1nc(-c2ccccc2)c2ccccc2c1=O` (stereo not drawn), the EC50 is greater than 61.7 µM and the IC50 was greater than 61.7 µM.

Take `CC(C)C(C(=O)O)C(=O)O`: the EC50 was greater than 200 µM and the half-maximal inhibitory concentration (IC50) was greater than 200 µM.

Consider `CC(=C(C#N)C#N)c1ccc(F)cc1`, for which the EC50 is greater than 138 µM and the IC50 was determined as 112 µM.

Consider `COc1ccc(NC(=O)/N=C2\CN(C(=O)c3c(F)cccc3F)C(=O)N2c2ccc(OC)cc2)cc1`, for which the EC50 was greater than 200 µM and the IC50 came out at 129 µM.

For `O=C(Nc1ccc2c(O)cc(S(=O)(=O)O)cc2c1)Nc1ccc2c(O)cc(S(=O)(=O)O)cc2c1`, the EC50 is 64.6 µM and the IC50 was 155 µM.

On to `O=C(Cn1ccnc1[N+](=O)[O-])c1ccccc1`, for which the EC50 was greater than 562 µM and the IC50 was greater than 562 µM.

Regarding `Cc1cc(C)n(-c2nc3ccccc3c(=O)[nH]2)n1`, the EC50 is greater than 5.13 µM and the half-inhibitory concentration (IC50) was 1.07 µM.

With `Cc1nn(C(=O)Cc2ccccc2)c2c1C(c1ccc(O)cc1)SC(N)=N2` (stereo not drawn), the EC50 was 83.2 µM and the half-maximal inhibitory concentration (IC50) was greater than 200 µM.

In the case of `O=C(O)C[C@H](Cl)[C@H](NC(=O)OCc1ccccc1)C(=O)O`, the outcome was inactive.

For the molecule `O=c1[nH]cnc2c1ncn2C1CCC2(CO)CC12` (stereo not drawn), the EC50 is greater than 50.1 µM and the IC50 is greater than 50.1 µM.

For the molecule `CC12CCC(C(=O)O1)C(C)(C)O2` (stereo not drawn), the EC50 was greater than 200 µM and the half-maximal inhibitory concentration (IC50) was greater than 200 µM.

As to `CN(C)CCCNC(=O)CCNC(=O)c1cc(NC(=O)c2cc(NC(=O)c3cc(NC(=O)c4nc(NC(=O)CCCNC(=O)c5cc(NC(=O)c6cc(NC(=O)c7cc(NC(=O)c8nccn8C)cn7C)cn6C)cn5C)cn4C)cn3C)cn2C)cn1C`, the EC50 is greater than 141 µM and the IC50 was found to be 24.5 µM.

Turning to `CN(C)c1ccc(-c2c3ccccc3nc3ccccc23)cc1`, the EC50 was greater than 4.57 µM and the 50% inhibitory concentration (IC50) is greater than 4.57 µM.

As to `Cc1ccc2oc(=O)c(C#N)c(C)c2c1`, the EC50 is greater than 25.1 µM and the IC50 was greater than 25.1 µM.

Turning to `CCOC(=O)c1ccc(N2C(=O)c3cccc4cccc(c34)C2=O)c([N+](=O)[O-])c1`, the EC50 was greater than 100 µM and the half-maximal inhibitory concentration (IC50) worked out at 37.2 µM.

For `O=C1CCCC(=O)NNC(=O)NCCCCCCNC(=O)NN1`, the EC50 is greater than 30.2 µM and the half-inhibitory concentration (IC50) was greater than 30.2 µM.

Regarding `CC(C)OCC(O)COc1ccc2ccc(=O)oc2c1` (stereo not drawn), the EC50 is greater than 200 µM and the IC50 is greater than 200 µM.

Consider `CN(C)c1ccc(/C=C2\Cc3ccccc3C2=O)cc1Br`, for which the EC50 is greater than 11 µM and the IC50 was greater than 11 µM.

Regarding `O=C1C(=O)N(C(=O)c2ccc(Cl)c(Cl)c2)c2ccc(Cl)cc21`, the outcome was inactive.

For `CC=C(c1cc(Br)c(OC)c(C(=O)OC)c1)c1cc(Br)c(OC)c(C(=O)OC)c1`, the EC50 was greater than 200 µM and the IC50 stood at 13.5 µM.

On to `Cc1cn([C@H]2C[C@@H]3[C@@H](COC(C(Cl)Cl)N3O)O2)c(=O)[nH]c1=O` (stereo partly drawn), for which the EC50 is greater than 200 µM and the IC50 was greater than 200 µM.

On to `COC(=O)C1(Cc2ccccc2)Cc2ccc3c(c2C1=O)CCC3` (stereo not drawn), for which the EC50 was greater than 200 µM and the IC50 was greater than 200 µM.

Turning to `CCCCCCCCCCCCCC(=O)NCC(OCC)OCC`, the result was inactive.

Consider `COC1C(=O)CCC2(CO2)C1(O)C1(C)OC1CC=C(C)C` (stereo not drawn), for which the EC50 was greater than 200 µM and the IC50 worked out at 2.88 µM.

Turning to `COCCNC(=O)C1C(=O)C(=O)N(CCOC)C1=O` (stereo not drawn), the result was inactive.

`CCc1ccc(N=Cc2cc(OC)c(OC)c(OC)c2)cc1`: the EC50 is greater than 33.1 µM and the half-maximal inhibitory concentration (IC50) was greater than 33.1 µM.

As to `CCCCCCCCCCCc1noc2c1C(=O)C(O)CC2` (stereo not drawn), the result was inactive.

Take `COc1cccc(N2C(=O)[C@H]3CC(C)c4c([nH]c5ccccc45)[C@H]3C2=O)c1` (stereo partly drawn): the EC50 was greater than 35.5 µM and the IC50 is greater than 35.5 µM.

Regarding `Cn1c2c(c(=O)n(C)c1=O)CS(=O)c1ccccc1N2` (stereo not drawn), the EC50 is greater than 309 µM and the IC50 turned out to be 234 µM.

Regarding `NC(Cc1ccc(S(=O)(=O)O)cc1)C(=O)NC(CCCCNC(=O)NCCCCC(NC(=O)C(N)Cc1ccc(S(=O)(=O)O)cc1)C(=O)NC(Cc1ccc(S(=O)(=O)O)cc1)C(=O)O)C(=O)NC(Cc1ccc(S(=O)(=O)O)cc1)C(=O)O` (stereo not drawn), the EC50 was greater than 100 µM and the 50% inhibitory concentration (IC50) is greater than 100 µM.

On to `CC12CCC(=O)N1c1cc(Cl)ccc1N2` (stereo not drawn), for which the EC50 is greater than 115 µM and the IC50 is greater than 115 µM.

For the molecule `Clc1cccc(Sc2ccccc2)c1`, the EC50 is greater than 23.4 µM and the IC50 was greater than 23.4 µM.

As to `NCCCc1nonc1C(=O)O`, the EC50 is greater than 200 µM and the IC50 is greater than 200 µM.

For the molecule `O=C(N[C@H]1CCC[C@H]1C(=O)Nc1ccc(C(F)(F)F)cc1)OCc1ccccc1`, the EC50 was greater than 200 µM and the IC50 was greater than 200 µM.

Consider `COC(=O)c1ccccc1/C=C1\Cc2c(C)c3c(c(C)c2C1=O)CCC3`, for which the result was inactive.

In the case of `CCCCCC(/C=C/c1ncccc1OCCCCCC(=O)O)=N\NC1=NCCN1`, the EC50 is greater than 44.7 µM and the IC50 is greater than 44.7 µM.

In the case of `O=C1C=C/C(=C/C(O)COC(=O)c2ccccc2)O1` (stereo not drawn), the EC50 was greater than 138 µM and the IC50 was found to be 77.6 µM.

Take `O=C(C[n+]1ccccc1)c1ccc(O)c(O)c1`: the EC50 is 0.0631 µM and the IC50 is greater than 200 µM.

Take `CC(C)NC(=O)OCCN=C1c2ccccc2CCc2ccccc21`: the EC50 is greater than 200 µM and the IC50 was found to be 27.5 µM.

With `c1ccc(-c2cc(-c3ccncc3)cc(-c3ccncc3)n2)cc1`, the EC50 was greater than 200 µM and the IC50 was greater than 200 µM.

As to `C=C1CCCCCCCCC/C=C/1SCCCSC`, the EC50 was greater than 200 µM and the IC50 was greater than 200 µM.

On to `CCCCCCCCCCCCCCCC(=O)OCC1OC(OC)C(NC(=O)N(CCCl)N=O)C(O)C1O` (stereo not drawn), for which the EC50 is greater than 33.1 µM and the IC50 turned out to be 6.92 µM.

Consider `COc1ccc(C2SCC(=O)N2c2ccc(-n3c(-c4ccccc4)nc4ccccc4c3=O)cc2)cc1` (stereo not drawn), for which the EC50 is greater than 200 µM and the IC50 came to 158 µM.

`Nc1ccn(C2CSC(CO)CO2)c(=O)n1` (stereo not drawn): the EC50 is greater than 513 µM and the half-maximal inhibitory concentration (IC50) came to 407 µM.

Turning to `CC(C)CC(=O)[O-].N.N.N.N.N.[Co+3].[O-][Cl+3]([O-])([O-])[O-]`, the outcome was inactive.

With `Cc1ccc2c(c1)NC(=O)CC(c1ccccc1)=N2`, the EC50 is greater than 200 µM and the IC50 was 115 µM.

Consider `O=[N+]([O-])c1cccc(-c2oc(C=Nc3ccccc3)c([N+](=O)[O-])c2-c2cccc([N+](=O)[O-])c2)c1`, for which the EC50 was greater than 56.2 µM and the IC50 was greater than 56.2 µM.

Turning to `CCOC(=O)N1N=C(/C(C)=N/OC)C(C)S1=O` (stereo not drawn), the EC50 was greater than 200 µM and the half-maximal inhibitory concentration (IC50) is 148 µM.

As for `CC(NC(=O)C(Cc1cnc[nH]1)NC(=O)C1CCC(=O)N1)C(N)=O` (stereo not drawn) ([pGlu]-His-Ala-NH2; configuration not given here), the EC50 is greater than 200 µM and the IC50 is greater than 200 µM.

As for `COc1ccccc1C(=O)OCC1CCCN2CCCCC12` (stereo not drawn), the EC50 is greater than 200 µM and the IC50 is 27.5 µM.

For the molecule `O=C(O)C1CC2=C(CN1)Cc1ccccc12` (stereo not drawn), the EC50 is greater than 9.33 µM and the IC50 was greater than 9.33 µM.

For the molecule `O=c1c(Sc2c(SCSc3cnc4ccccc4c3Sc3c[nH]c4ccccc4c3=O)cnc3ccccc23)c[nH]c2ccccc12`, the EC50 was greater than 100 µM and the 50% inhibitory concentration (IC50) was greater than 100 µM.

Values taken from PubChem BioAssay AID179 (DTP/NCI, 2004).
